Measured values: patent US20240218017A1, “PEPTIDE AMPHIPHILES WITH MODIFIED DEGRADING SEQUENCES AND METHODS OF USE THEREOF” (UAB RESEARCH FOUNDATION, priority 2022, published 2024)
Peptide text beside a SMILES is read from it. * marks the point of attachment. Palmitoyl = CCCCCCCCCCCCCCCC(=O)*

Test: Solubility in DI water at 1 wt % (visual observation, FIG. 5)
Assay type: physicochemical
Method: PA-C16-GTAGLKKK-YIGSR (SEQ ID NO: 19) and PA-C16-GTAKKKKK-YIGSR (SEQ ID NO:20) were dissolved in DI water at 1 wt %. […] Higher percent transmittance indicates less opaqueness of solution, which corresponds with increased solubility of the peptide amphiphiles in DI water. Thus, PA-C16-GTAGLKKK-YIGSR (SEQ ID NO: 19) and PA-C16-GTAKKKKK-YIGSR (SEQ ID NO:20) are more soluble than unmodified PA-C16-GTAGLIGQ-YIGSR (SEQ ID NO:21).

solubility | Compound
insoluble and forms precipitates | CCCCCCCCCCCCCCCC(=O)NCC(=O)N[C@H](C(=O)N[C@@H](C)C(=O)NCC(=O)N[C@@H](CC(C)C)C(=O)N[C@H](C(=O)NCC(=O)N[C@@H](CCC(N)=O)C(=O)N[C@@H](Cc1ccc(O)cc1)C(=O)N[C@H](C(=O)NCC(=O)N[C@@H](CO)C(=O)N[C@@H](CCCNC(=N)N)C(=O)O)[C@@H](C)CC)[C@@H](C)CC)[C@@H](C)O [PA-C16-GTAGLIGQ-YIGSR, PA-C16-GTAGLIGQ-YIGSR (SEQ ID NO:21), reference compound] (Palmitoyl-GTAGLIGQYIGSR-OH; N-terminus and C-terminus assumed)
form homogenous, transparent solutions | CCCCCCCCCCCCCCCC(=O)NCC(=O)N[C@H](C(=O)N[C@@H](C)C(=O)NCC(=O)N[C@@H](CC(C)C)C(=O)N[C@@H](CCCCN)C(=O)N[C@@H](CCCCN)C(=O)N[C@@H](CCCCN)C(=O)N[C@@H](Cc1ccc(O)cc1)C(=O)N[C@H](C(=O)NCC(=O)N[C@@H](CO)C(=O)N[C@@H](CCCNC(=N)N)C(=O)O)[C@@H](C)CC)[C@@H](C)O [PA-C16-GTAGLKKK-YIGSR, PA-C16-GTAGLKKK-YIGSR (SEQ ID NO:19)] (Palmitoyl-GTAGLKKKYIGSR-OH; N-terminus and C-terminus assumed)
form homogenous, transparent solutions | CCCCCCCCCCCCCCCC(=O)NCC(=O)N[C@H](C(=O)N[C@@H](C)C(=O)N[C@@H](CCCCN)C(=O)N[C@@H](CCCCN)C(=O)N[C@@H](CCCCN)C(=O)N[C@@H](CCCCN)C(=O)N[C@@H](CCCCN)C(=O)N[C@@H](Cc1ccc(O)cc1)C(=O)N[C@H](C(=O)NCC(=O)N[C@@H](CO)C(=O)N[C@@H](CCCNC(=N)N)C(=O)O)[C@@H](C)CC)[C@@H](C)O [PA-C16-GTAKKKKK-YIGSR, PA-C16-GTAKKKKK-YIGSR (SEQ ID NO:20)] (Palmitoyl-GTAKKKKKYIGSR-OH; N-terminus and C-terminus assumed)
